Measurements reported in ChEMBL document CHEMBL5505993, “Identification of a ferritinophagy inducer via sinomenine modification for the treatment of colorectal cancer” (Eur J Med Chem, 2024).

What was measured:
HCT-116 = test: Cytotoxicity against human HCT-116 cells assessed as inhibition of cell growth incubated for 48 hrs by CCK-8 assay; assay type: functional, cell-based; conditions: HCT-116, 48 h
HT-29 = test: Cytotoxicity against human HT-29 cells assessed as inhibition of cell growth incubated for 48 hrs by CCK-8 assay; assay type: functional, cell-based; conditions: HT-29, 48 h
[1] = Cytotoxicity against human NCM460 cells assessed as inhibition of cell growth incubated for 48 hrs by CCK-8 assay; assay type: toxicity, cell-based

Row | Structure (SMILES) | IC50 (HCT-116) [µM] | IC50 (HT-29) [µM] | IC50 at 48 h [1] [µM]
1 | CCCCCCC(=O)Oc1c(OC)ccc2c1[C@@]13CCN(C)[C@@H](C2)[C@H]1C=C(OC)C(=O)C3 | > 50 | 31.9 | > 50
2 | COC1=C[C@@H]2[C@@H]3Cc4ccc(OC)c(OC(=O)CCl)c4[C@]2(CCN3C)CC1=O | 33.3 | > 50 | > 50
3 | COC1=C[C@@H]2[C@@H]3Cc4ccc(OC)c(O)c4[C@]2(CCN3C)CC1=O [SINOMENINE] | > 50 | > 50 | > 50
4 | C=C(C)C(=O)Oc1c(OC)ccc2c1[C@@]13CCN(C)[C@@H](C2)[C@H]1C=C(OC)C(=O)C3 | 61.4 | > 50 | > 50
5 | COCC(=O)Oc1c(OC)ccc2c1[C@@]13CCN(C)[C@@H](C2)[C@H]1C=C(OC)C(=O)C3 | > 50 | > 50 | > 50
6 | COC1=C[C@@H]2[C@@H]3Cc4ccc(OC)c(OC(=O)/C=C/C(F)(F)F)c4[C@]2(CCN3C)CC1=O | 6.01 | 5.99 | 16
7 | COC1=C[C@@H]2[C@@H]3Cc4ccc(OC)c(OC(=O)/C=C/c5ccccc5)c4[C@]2(CCN3C)CC1=O | > 50 | > 50 | > 50
8 | C=C(Cl)C(=O)Oc1c(OC)ccc2c1[C@@]13CCN(C)[C@@H](C2)[C@H]1C=C(OC)C(=O)C3 | 12.9 | 8.66 | 35.2
9 | COC1=C[C@@H]2[C@@H]3Cc4ccc(OC)c(OC(=O)C(C)C)c4[C@]2(CCN3C)CC1=O | > 50 | > 50 | > 50
10 | C=CC(=O)NCCC(=O)Oc1c(OC)ccc2c1[C@@]13CCN(C)[C@@H](C2)[C@H]1C=C(OC)C(=O)C3 | > 50 | > 50 | > 50
11 | C=C(Cl)C(=O)NCCCCCCCC(=O)Oc1c(OC)ccc2c1[C@@]13CCN(C)[C@@H](C2)[C@H]1C=C(OC)C(=O)C3 | 19.6 | 17.8 | > 50
12 | COC1=C[C@@H]2[C@@H]3Cc4ccc(OC)c(OC(C)=O)c4[C@]2(CCN3C)CC1=O | > 50 | > 50 | > 50
13 | C=CC(=O)NCCCCCCCCCCCC(=O)Oc1c(OC)ccc2c1[C@@]13CCN(C)[C@@H](C2)[C@H]1C=C(OC)C(=O)C3 | 20.2 | 7.14 | 33.2
14 | CCO/C=C/C(=O)Oc1c(OC)ccc2c1[C@@]13CCN(C)[C@@H](C2)[C@H]1C=C(OC)C(=O)C3 | > 50 | > 50 | > 50
15 | C=C(Cl)C(=O)NCCC(=O)Oc1c(OC)ccc2c1[C@@]13CCN(C)[C@@H](C2)[C@H]1C=C(OC)C(=O)C3 | 4.76 | 9.45 | 34.5
16 | C/C=C/C(=O)Oc1c(OC)ccc2c1[C@@]13CCN(C)[C@@H](C2)[C@H]1C=C(OC)C(=O)C3 | > 50 | > 50 | > 50
17 | COC1=C[C@@H]2[C@@H]3Cc4ccc(OC)c(OC(=O)CCCCCCCNC(=O)/C=C/C(F)(F)F)c4[C@]2(CCN3C)CC1=O | > 50 | > 50 | > 50
18 | COC1=C[C@@H]2[C@@H]3Cc4ccc(OC)c(OC(=O)c5ccccc5)c4[C@]2(CCN3C)CC1=O | > 50 | > 50 | > 50
19 | COC1=C[C@@H]2[C@@H]3Cc4ccc(OC)c(OC(=O)CCCCCCCCCCCNC(=O)/C=C/C(F)(F)F)c4[C@]2(CCN3C)CC1=O | 7.84 | 8.71 | 22.9
20 | CCCC(=O)Oc1c(OC)ccc2c1[C@@]13CCN(C)[C@@H](C2)[C@H]1C=C(OC)C(=O)C3 | > 50 | > 50 | > 50
21 | CCCCCCCCCCCC(=O)Oc1c(OC)ccc2c1[C@@]13CCN(C)[C@@H](C2)[C@H]1C=C(OC)C(=O)C3 | 5.69 | 4 | 9.85
22 | COC1=C[C@@H]2[C@@H]3Cc4ccc(OC)c(OC(=O)c5ccc(Cl)cc5)c4[C@]2(CCN3C)CC1=O | > 50 | 25.1 | > 50
23 | COC1=C[C@@H]2[C@@H]3Cc4ccc(OC)c(OC(=O)C5CC5)c4[C@]2(CCN3C)CC1=O | > 50 | > 50 | > 50
24 | COC1=C[C@@H]2[C@@H]3Cc4ccc(OC)c(OC(=O)CCNC(=O)/C=C/C(F)(F)F)c4[C@]2(CCN3C)CC1=O | > 50 | > 50 | > 50
25 | COC1=C[C@@H]2[C@@H]3Cc4ccc(OC)c(OC(=O)c5ccc(OC)cc5)c4[C@]2(CCN3C)CC1=O | > 50 | > 50 | > 50
26 | C=CCCC(=O)Oc1c(OC)ccc2c1[C@@]13CCN(C)[C@@H](C2)[C@H]1C=C(OC)C(=O)C3 | > 50 | > 50 | > 50
27 | C=CC(=O)NCCCCCCCC(=O)Oc1c(OC)ccc2c1[C@@]13CCN(C)[C@@H](C2)[C@H]1C=C(OC)C(=O)C3 | > 50 | > 50 | > 50
28 | C=CC(=O)Oc1c(OC)ccc2c1[C@@]13CCN(C)[C@@H](C2)[C@H]1C=C(OC)C(=O)C3 | 7.04 | 9.12 | 32.5
